# Entries after “also recorded” stand apart in the source; their conditions may differ. Ends that are not written are not given here.
# Assays:
# [1] = test system: Beagle dogs; assay: GLP 14-day intravenous toxicity study (CRM Study No. 501448): clinical signs and plasma histamine; assay type: in vivo, dog
# Method: Blood samples (approximately 1 mL) were collected from all animals on Days 1, 6 and 12 at predose, 5 and 15 minutes post injection. Blood samples were collected by venipuncture (jugular, saphenous and cephalic) into tubes containing EDTA. The samples were then centrifuged (within 30 minutes of collection) in a refrigerated centrifuge (ca. 4° C.) at 2700 rpm for 10 minutes. Plasma were separated into a second tube with the appropriate label and stored at −80° C. until analysis at CRM. Plasma samples were used for investigating histamine levels. Samples from animals dosed intravenously with Tat-NR2B9c were analyzed using a validated method.
# [2] = test system: Beagle dogs; assay: GLP cardiovascular telemetry study, escalating doses (CRM Study No. 691106); assay type: in vivo, dog
# Method: In a GLP cardiovascular telemetry study in unrestrained conscious Beagle dogs (CRM Study No. 691106), 6 animals (3 males, 3 females) were administered escalating doses of Tat-NR2B9c (0.25, 1.0, or 5.0 mg/kg gross peptide), with a washout period of 3 days between dose levels. […] Moreover, the time-frame between the low dose (0.25 mg/kg) and the high dose (5.0 mg/kg) was about 6 days, i.e., of insufficient duration to allow the generation of an immune response. The effect is thus caused by a direct degranulation of mast cells causing histamine release.
# [3] = test system: Beagle dogs; assay: GLP cardiovascular telemetry study at 10 mg/kg (CRM Study No. 691429); assay type: in vivo, dog
# Method: To obtain detailed cardiovascular information at the highest dose level tested in the 14-day dog repeated-dose toxicity study (i.e., 10 mg/kg), an additional GLP cardiovascular telemetry study in unrestrained, conscious, Beagle dogs was performed (CRM Study No. 691429). Six animals (3 males, 3 females) received vehicle in the morning and 10 mg/kg Tat-NR2B9c in the afternoon of the same day (at least 4 hours between doses). […] The female animals used in this additional cardiovascular study were obtained from the Charles River colony and were non-nave animals that had been previously used in the first cardiovascular study for Tat-NR2B9c (CRM Study No. 691106).
# [4] = test system: Sprague-Dawley rats; assay: Non-GLP blood pressure study in anesthetized rats at 50 mg/kg; assay type: in vivo, rat
# Method: In one experiment, 5 male Sprague-Dawley rats received a 50 mg/kg Tat-NR2B9c bolus dose over 3 minutes. Blood pressure was monitored via a femora arterial catheter.
# [5] = test system: Beagle dogs; assay: Non-GLP dose range study, single slow intravenous injection; assay type: in vivo, dog; details: for Severity of angio-neurotic oedema and urticaria: 12.5 mg/kg
# Method: A non-GLP study was conducted to examine a dose range for Tat-NR2B9c, administered to Beagle dogs by a single, slow intravenous injection. Two animals (one male and one female Beagle dog) were dosed intravenously with Tat-NR2B9c on seven occasions. There was a 3-4 day wash-out period between the doses. The first dose was given at 2.5 mg/kg. […] There was no reaction in the female dog. […] The third dose was given at 12.5 mg/kg. […] The reaction in the male dog was assessed to be moderate, and in the female animal, the reaction was mild. The next dose was set at 20.0 mg/kg. […] The animal was treated with i.v. administration of benadryl and dexamethasone. BP at 5 minutes post-dosing was recorded as 37/13 mm Hg (nomial BP in a dog is ˜160/90). A decision was made not to dose the female animal.
# The next doses were given in order to better understand the type of reactions seen in preceding doses. The fifth and sixth doses were set at 2.5 and 5.0 mg/kg.
# [6] = test system: humans; assay: Safety, Tolerability and Pharmacokinetic Study in humans: adverse events; assay type: in vivo, human
# Method: We carried out a Safety, Tolerability and Pharmacokinetic Study of Tat-NR2B9c in humans. Subjects were either normal, healthy, non-smoking males or post-menopausal or surgically sterile female subjects with a minimum age of 18 years. The subjects were either administered Tat-NR2B9c, Lot #: 124-134-001B, or were given placebo (Phosphate Buffered Saline), Lot #: 124-134-001A, administered as an intravenous infusion (10±1 minutes). Four subjects were dosed in each of Cohorts 1 to 3, and 10 subjects were dosed in each of Cohorts 4 to 8. All 62 subjects completed the study. Treatment periods for each cohort were as follows: Cohort 1: Sep. 14, 2006; Cohort 2: Sep. 26, 2006; Cohort 3: Oct. 6, 2006; Cohort 4: Oct. 20, 2006; Cohort 5: Nov. 6, 2006; Cohort 6: Dec. 4, 2006; Cohort 7: Dec. 17, 2006; Cohort 8: Feb. 25, 2007.
# The safety assessment was performed on all subjects who received at least 1 dose during the course of the study. The incidents of all adverse events (AEs) were tabulated by treatment and subject number. Absolute values for vital signs, electrocardiogram (ECG) parameters, laboratory parameters and physical examinations were also documented and values outside the nomial range were flagged. Shifts from baseline values were tabulated. AEs were documented using investigator and Medical Dictionary for Regulatory Activities (MedDRA) terms.
# [7] = Maximum Tolerated Dose in preclinical animal trials, rats; details: rat, in vivo
# [8] = test system: rats; assay: Mean arterial pressure (MAP) in rats after Tat peptides with or without anti-inflammatory agents; details: 7.5 mg/kg bolus; FIG. 7
sequence,measurement,setting,value
YGRKKRRQRRRKLSSIESDV [Tat-NR2B9c],Lethargy and unpalpable pulse as characterized by attending veterinarian,[1]; 10 mg/kg daily i.v.,severe hypotensive reaction
same,Clinical signs,"[1]; 10 mg/kg daily i.v., 14 days, all animals",treatment-related clinical signs
same,Change of histamine levels during 14-day repeated dosing,[1]; any dose level,no consistent increase in histamine levels
same,Plasma histamine levels,"[1]; immediately following the first administration, naive dogs",increased histamine levels
same,Dogs with transient drop in blood pressure,[2]; 5 mg/kg,4 of 6
same,Duration of transient drop in blood pressure,[2]; 5 mg/kg,approximately 30 minutes
same,Effects on blood pressure,[2]; 0.25 or 1.0 mg/kg,No effects
same,Time post-dose over which increases in heart rate were observed,[3],up to 15 minutes
same,Decreases in blood pressure values,[3]; individual animals at 5 to 10 minutes post-dose,up to 62%
same,Time of maximum effect on heart rate,[3]; males and females,10 min
same,Mean arterial pressure,"[4]; 50 mg/kg bolus over 3 minutes, all animals, FIG. 6",transient reductions in mean arterial pressure; also recorded: drop in blood pressure
same,Respiratory effects,"[4]; rat, 50 mg/kg","decreased tidal volume, respiratory rate and derived minute volume"
same,Reaction,"[5]; 5.0 mg/kg, female dog",no reaction
same,Reaction,"[5]; 5.0 mg/kg, male dog",moderate reaction
same,"Vital signs (heart rate, blood pressure, respiratory rate and body temperature)","[5]; 7.5 mg/kg, both animals",stayed within the normal physiological ranges
same,Reaction,"[5]; 7.5 mg/kg, female dog",no reaction
same,Reaction,"[5]; 7.5 mg/kg, male dog",angio-neurotic edema of the soft tissue of the head and urticaria type of reaction
same,Severity of angio-neurotic oedema and urticaria,[5]; female dog,mild
same,Severity of angio-neurotic oedema and urticaria,[5]; male dog,moderate
same,Reaction,"[5]; 20.0 mg/kg, male dog",went into shock
same,Blood pressure at 5 minutes post-dosing,"[5]; 20.0 mg/kg, male dog, treated with benadryl and dexamethasone",37/13
same,Adverse reactions,[5]; fifth dose 2.5 mg/kg,reddening of ear and face of the male dog
same,Signs of toxicity,"[5]; first dose 2.5 mg/kg, male and female dog",did not show any signs of toxicity
same,Conclusion of dose range study,[5]; high doses,capable of inducing profound transient hypotension and urticaria-like skin reactions
same,AEs of the higher doses at the lower dose range,[6]; 0.02 to 1.50 mg/kg,minimal or not present
same,Incidence of AEs vs lower dose groups and placebo,[6]; 2.60 and 3.75 mg/kg dose groups,significantly more AEs; also recorded: higher
same,Serious Adverse Events,[6]; all doses,No Serious Adverse Events (SAEs) were reported
same,Active treatment subjects with at least 1 AE,[6]; all doses 0.02-3.75 mg/kg,73.9%
same,Doses at which several AEs were frequently reported,"[6]; decreased blood pressure, paraesthesia, hypoaesthesia, erythema, rash, pruritus, dry mouth, nausea, feeling hot, flushing",≥ 2.60 mg/kg
same,Subjects feeling hot,[6]; subjects receiving Tat-NR2B9c,28.3%
same,Subjects feeling hot (count),[6]; subjects receiving Tat-NR2B9c,13/46
same,Subjects with dry mouth,[6]; subjects receiving Tat-NR2B9c,19.6%
same,Subjects with dry mouth (count),[6]; subjects receiving Tat-NR2B9c,9/46
same,Subjects with flushing,[6]; subjects receiving Tat-NR2B9c,21.7%
same,Subjects with flushing (count),[6]; subjects receiving Tat-NR2B9c,10/46
same,Subjects with pruritis,[6]; subjects receiving Tat-NR2B9c,26.1%
same,Subjects with pruritis (count),[6]; subjects receiving Tat-NR2B9c,12/46
same,MTD,[7],100 mg/kg
same,Effect on MAP (printed MAT) after injection,[8],rapid and transient reduction; also recorded: reduction in blood pressure

# From US10046060B2, “Co-administration of an agent linked to an internalization peptide with an anti-inflammatory” (NoNO Inc., priority 2007, dated 2018)
